The text below walks through data of patent US6583147B1, “Pyrazolopyrimidinone derivatives for the treatment of impotence” (Dong A Pharm Co., Ltd., priority 1998, dated 2003).

For orientation: IC50 means the concentration that inhibits the measured activity by half. Low values mean greater potency in that assay, high ones weaker potency in that assay.

In data set [1] the target is T1, Phosphodiesterase-5 enzyme (PDE 5) (Homo sapiens, UniProt O76074).
T1 construct: separated by HPLC (Mono Q anion exchange column) with concentration gradient of 0-500 mM NaCl to elute PDE isozymes; from tissue; host or cells: human corpus cavernosal tissue
As to the kind of experiment: Test for phosphodiesterase-5 (PDE 5) activity. To be noted: PDE 5 fraction from human corpus cavernosal tissues. In kind it is biochemical.

Data set [2] deals with T2, Phosphodiesterase-3 enzyme (PDE 3) (Oryctolagus cuniculus, UniProt G1ST54).
T2 construct: The supernatant was separated by DEAE-cellulose column chromatography (Whatman DE52 bead); from tissue; host or cells: rabbit platelets
T2 sequence (G1ST54 1-1128): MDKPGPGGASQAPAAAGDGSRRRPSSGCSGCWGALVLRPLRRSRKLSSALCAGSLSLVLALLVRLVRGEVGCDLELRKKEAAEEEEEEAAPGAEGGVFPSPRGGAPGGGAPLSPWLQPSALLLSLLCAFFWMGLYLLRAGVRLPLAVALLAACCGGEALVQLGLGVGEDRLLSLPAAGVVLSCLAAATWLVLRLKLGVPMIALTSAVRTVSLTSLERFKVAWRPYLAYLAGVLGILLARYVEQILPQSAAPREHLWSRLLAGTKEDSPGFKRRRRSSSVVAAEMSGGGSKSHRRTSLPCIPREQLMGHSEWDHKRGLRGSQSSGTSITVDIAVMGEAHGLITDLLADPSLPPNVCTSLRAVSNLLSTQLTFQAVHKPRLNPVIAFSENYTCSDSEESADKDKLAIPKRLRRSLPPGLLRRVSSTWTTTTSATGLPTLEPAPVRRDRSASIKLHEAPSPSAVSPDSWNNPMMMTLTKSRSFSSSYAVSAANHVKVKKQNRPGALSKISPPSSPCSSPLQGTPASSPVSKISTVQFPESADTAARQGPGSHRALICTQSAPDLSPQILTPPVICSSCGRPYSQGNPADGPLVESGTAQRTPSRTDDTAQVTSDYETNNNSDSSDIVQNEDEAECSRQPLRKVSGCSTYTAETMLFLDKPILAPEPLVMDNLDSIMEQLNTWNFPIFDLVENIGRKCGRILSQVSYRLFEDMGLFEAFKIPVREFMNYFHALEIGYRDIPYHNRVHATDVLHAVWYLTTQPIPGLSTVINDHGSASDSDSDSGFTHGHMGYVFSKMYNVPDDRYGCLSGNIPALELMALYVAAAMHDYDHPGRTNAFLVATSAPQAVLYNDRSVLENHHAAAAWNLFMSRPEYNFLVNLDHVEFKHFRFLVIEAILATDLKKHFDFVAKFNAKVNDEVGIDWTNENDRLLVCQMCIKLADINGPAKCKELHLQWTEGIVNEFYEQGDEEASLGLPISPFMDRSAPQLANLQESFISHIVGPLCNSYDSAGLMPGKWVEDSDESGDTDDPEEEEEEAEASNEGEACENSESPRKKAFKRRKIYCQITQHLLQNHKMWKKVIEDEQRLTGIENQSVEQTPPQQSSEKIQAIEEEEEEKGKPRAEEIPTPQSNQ
As to the kind of experiment: Test for phosphodiesterase-3 (PDE 3) activity. Format: biochemical. To be noted: PDE 3 fraction from platelets of a rabbit. The protocol: Phosphodiesterase-3 enzyme (PDE 3) was separated from platelets of a rabbit. About 60 ml of blood was collected from a puncture of the abdominal artery of a rabbit in heparinized syringes. Platelet-rich plasma was harvested by centrifugation for 5 min at 450×g and further centrifuged for 15 min at 1,200×g to precipitate the platelets. The platelets were resuspended in homogenizing buffer (50 mM Tris-HCl, 1 mM MgCl2, pH 7.4), homogenized at 4° C. and ultrasonicated (30 sec/ml). The homogenized solution was centrifuged (105,000×g) for 1 hr at 4° C. to obtain the supernatant in which PDE was dissolved. The supernatant was separated by DEAE-cellulose column chromatography (Whatman DE52 bead) by using eluent (50 mM Tris-HCl, 3.75mM2-mercaptoethanol, pH 6.0) with concentration gradient of 0-1 M sodium acetate to elute PDE isozymes. The PDE activity was measured on the each column fraction by the following process to separate PDE 3 fraction and the inhibition for PDE 3 of the compounds of formula 1 was measured by using the fraction.
To 1.5 ml tube containing 100 ul of reaction mixture (15 mM Tris-HCl, 5 mM MgCl2, 0.5 mg/ml BSA, pH 7.4) were added appropriate amount of PDE 3 fraction and PDE inhibitor and the solution was mixed well. After [^3H]-cAMP or [^3H]-cGMP (500 nM, 2 uCi/ml) was added, the mixture was reacted in incubator of 30° C. for about 1 hour and the reaction was quenched by putting the tube into boiling water for about 45 seconds to 2 min. The tube was chilled in ice bath for about 5 min. To this tube was added snake venom (1 mg/ml, 100 ul) or 5′-nucleotidase (0.1 unit/tube) and the mixture was reacted in incubator of 37° C. for 10 min and chilled in ice bath. 3 times volume of methanol to the resin was added to the anion exchange resin (Bio-Rad resin, AG1-X2, 200-400 mesh) which had been already washed with 0.5 N HCl, H2O, 0.5 N NaOH, H2O, 0.5 N HCl and H2O in order and adjusted to pH 5. Then 1 ml of the pretreated resin was added to the each tube with vortexing. The mixture was left at 4° C. for 15 min with occasional vortexing and centrifuged (10,000 rpm) for about 5 min to sediment the resin. The supernatant (700 ul) was transferred to a liquid scintillation vial, and mixed with 10 ml of scintillation cocktail. After stabilizing the mixture by leaving it overnight, the radioactivity of the tube was measured by β-counter.

The nature of data set [3]: Acute oral toxicity test in rats. As to conditions: SD, rat, in vivo, 1 g/kg; rats, oral single dose; read-out: lethal dose (LD50) of oral administration.
Data set [4] has as its system rats. As to the kind of experiment: Penile erection test using rats. Format: in vivo, rat. To be noted: oral single dose 10 mg/kg in 0.5% methyl cellulose, observed for 2 hours.

For the compound `CCOc1ccc(S(=O)(=O)NCc2ccccc2)cc1-c1nc2c(CC(C)C)nn(C)c2c(=O)[nH]1` [Example 2, 5-[2-ethoxy-5-(benzylamidosulfonyl)phenyl]-1-methyl-3-isobutyl-1,6-dihydro-7H-pyrazolo(4,3-d)pyrimidin-7-one], the IC50 in data set [1] was 10.8 nM. The same compound gave an IC50 in data set [2] of over 202000 nM. The LD50 in data set [3] was over 1000 mg/kg. In addition, in data set [4], the “PEI (penile erection index)” value turned out to be 533.3 ± 305.5 and the “genital grooming (number of genital groomings)” value (shortened to “genital grooming”) is listed as 5.7 ± 2.5.
Taken in the same sequence, the figures for `CCCOc1ccc(S(=O)(=O)NC(C)C)cc1-c1nc2c(CCC)nn(C)c2c(=O)[nH]1` [Example 3, 5-[2-propyloxy-5-(isopropylamidosulfonyl)phenyl]-1-methyl-3-propyl-1,6-dihydro-7H-pyrazolo(4,3-d)pyrimidin-7-one] were 5.36 nM, over 223000 nM, over 1000 mg/kg, 233.3 ± 152.8 and 2.7 ± 2.1.
In the case of `CCCOc1ccc(S(=O)(=O)NCC2CCN(CC)C2)cc1-c1nc2c(CCC)nn(C)c2c(=O)[nH]1` (stereo not drawn) [Example 64, 5-[2-propyloxy-5-(1-ethyl-3-pyrrolidinylmethylamidosulfonyl)phenyl]-1-methyl-3-propyl-1,6-dihydro-7H-pyrazolo(4,3-d)pyrimidin-7-one], the IC50 in data set [1] is 30.7 nM. In data set [2], the midpoint of inhibition, the IC50, lay at 134000 nM. Further, in data set [3], the LD50 is over 1000 mg/kg. Also, in data set [4], the “PEI (penile erection index)” value was 175.0 ± 95.7 and the “genital grooming” value is reported as 2.8 ± 0.5.
In the case of `CCCc1nn(CC)c2c(=O)[nH]c(-c3cc(S(=O)(=O)NCC4CCCN4C)ccc3OCC)nc12` (stereo not drawn) [Example 57], the values for the IC50 in data set [1] and in data set [2] were 33.3 nM and 47700 nM, respectively. Also, the “PEI (penile erection index)” value in data set [4] is given as 131.3 ± 128.1. In addition, the “genital grooming” value in data set [4] stood at 1.8 ± 1.3.
Take `CCCOc1ccc(S(=O)(=O)NCc2ccccn2)cc1-c1nc2c(CCC)nn(C)c2c(=O)[nH]1` [Example 52, 5-[2-propyloxy-5-(2-pyridylmethylamidosulfonyl)phenyl]-1-methyl-3-propyl-1,6-dihydro-7H-pyrazolo(4,3-d)pyrimidin-7-one]: the IC50 is 9.89 nM in data set [1] and over 201000 nM in data set [2]. The LD50 in data set [3] was over 1000 mg/kg. The “PEI (penile erection index)” value in data set [4] was 233.3 ± 57.7. For the same compound, the “genital grooming” value in data set [4] worked out at 3.0 ± 1.0.
On to `CCCc1nn(CC)c2c(=O)[nH]c(-c3cc(S(=O)(=O)NCCC4CCCN4C)ccc3OCC)nc12` (stereo not drawn) [Example 69], for which the IC50 in data set [1] is 31.9 nM. Also, the IC50 in data set [2] is 76500 nM. Moreover, in data set [4], the “PEI (penile erection index)” value came out at 225.0 ± 95.7 and the “genital grooming” value is on record as 2.3 ± 1.0.
In data set [1], `CCCc1nn(CC)c2c(=O)[nH]c(-c3cc(S(=O)(=O)NCC4CCN(CC)C4)ccc3OCC)nc12` (stereo not drawn) [Example 65] showed an IC50 of 74.5 nM. In data set [2], this compound showed an IC50 of 32100 nM. For the same compound, in data set [4], the “PEI (penile erection index)” value is 93.8 ± 94.4 and the “genital grooming” value is 1.8 ± 1.0.
In turn, `CCCc1nn(C)c2c(=O)[nH]c(-c3cc(S(=O)(=O)NC4CCCCC4)ccc3OCC)nc12` [Example 19, 5-[2-ethoxy-5-(cyclohexylamidosulfonyl)phenyl]-1-methyl-3-propyl-1,6-dihydro-7H-pyrazolo(4,3-d)pyrimidin-7-one] gave an IC50 in data set [1] of 4.98 nM. For the same compound, the LD50 in data set [3] was over 1000 mg/kg. Further, in data set [4], the “PEI (penile erection index)” value was determined as 233.3 ± 57.7 and the “genital grooming” value is 5.0 ± 0.0.
For the compound `CCCc1nn(C)c2c(=O)[nH]c(-c3cc(S(=O)(=O)NCC4CCN(C)C4)ccc3OCC)nc12` (stereo not drawn) [Example 59], in data set [1], the IC50 was 140 nM. Also, the IC50 in data set [2] was 122000 nM. In data set [4], the “PEI (penile erection index)” value worked out at 150.0 ± 57.7 and the “genital grooming” value was determined as 1.5 ± 0.6.
As for `CCCc1nn(C)c2c(=O)[nH]c(-c3cc(S(=O)(=O)Nc4ccc(C(C)(C)C)cc4)ccc3OCC)nc12` [Example 28, 5-[2-ethoxy-5-(4-t-butylphenylamidosulfonyl)phenyl]-1-methyl-3-propyl-1,6-dihydro-7H-pyrazolo(4,3-d)pyrimidin-7-one], inhibition in data set [1] was half-maximal at 46.6 nM (IC50). Also, the LD50 in data set [3] is over 1000 mg/kg. Further, in data set [4], the “PEI (penile erection index)” value worked out at 300.0 ± 100.0 and the “genital grooming” value amounted to 3.0 ± 1.0.
As for `CCCc1nn(CC)c2c(=O)[nH]c(-c3cc(S(=O)(=O)Nc4ccc(C(C)(C)C)cc4)ccc3OCC)nc12` [Example 29, 5-[2-ethoxy-5-(4-t-butylphenylamidosulfonyl)phenyl]-1-ethyl-3-propyl-1,6-dihydro-7H-pyrazolo(4,3-d)pyrimidin-7-one], it took 49.8 nM to reach half-maximal inhibition in data set [1] (IC50). For the same compound, in data set [3], the LD50 is over 1000 mg/kg. In data set [4], the “PEI (penile erection index)” value was found to be 233.3 ± 152.8 and the “genital grooming” value is given as 3.0 ± 2.0.
As to `CCCc1nn(CC)c2c(=O)[nH]c(-c3cc(S(=O)(=O)NCc4ccccc4)ccc3OCC)nc12` [Example 24, 5-[2-ethoxy-5-(benzylamidosulfonyl)phenyl]-1-ethyl-3-propyl-1,6-dihydro-7H-pyrazolo(4,3-d)pyrimidin-7-one], in data set [1], the IC50 was 86 nM. Also, the LD50 in data set [3] was over 1000 mg/kg. For the same compound, in data set [4], the “PEI (penile erection index)” value came out at 233.3 ± 230.9 and the “genital grooming” value turned out to be 2.7 ± 2.9.
As to `CCCc1nn(C)c2c(=O)[nH]c(-c3cc(S(=O)(=O)Nc4ccc(F)cc4)ccc3OCC)nc12` [Example 26, 5-[2-ethoxy-5-(4-fluorophenylamidosulfonyl)phenyl]-1-methyl-3-propyl-1,6-dihydro-7H-pyrazolo(4,3-d)pyrimidin-7-one], the IC50 in data set [1] was 74.6 nM. Besides, the LD50 in data set [3] was over 1000 mg/kg. Further, in data set [4], the “PEI (penile erection index)” value amounted to 133.3 ± 133.3 and the “genital grooming” value amounted to 4.0 ± 1.7.
Turning to `CCCc1nn(C)c2c(=O)[nH]c(-c3cc(S(=O)(=O)NCC4CCN(CC)C4)ccc3OCC)nc12` (stereo not drawn) [Example 63], in data set [1], the IC50 is 98.2 nM. In data set [2], this compound had an IC50 of 52300 nM. In addition, in data set [4], the “PEI (penile erection index)” value stood at 12.5 ± 25.0 and the “genital grooming” value came out at 1.5 ± 0.6.
